Measurements published in patent US20260022142A1, “MACROCYCLIC IMMUNOMODULATORS” (Bristol-Myers Squibb Company, priority 2022, published 2026).
Bridge positions count the residues as written; N and C are the ends. Square brackets hold non-standard residues; d marks the D form. Peptide text beside a SMILES is read from it. * marks the point of attachment. ξ: configuration not given here. Bip = N[C@@H](Cc1ccc(-c2ccccc2)cc1)C(=O)O; Phe(3-Me) = Cc1cccc(C[C@H](N)C(=O)O)c1; hArg = N=C(N)NCCCC[C@H](N)C(=O)O; Cha = N[C@@H](CC1CCCCC1)C(=O)O; Cit = NC(=O)NCCC[C@H](N)C(=O)O; Thr(3ξ) = CC(O)[C@H](N)C(=O)O; NMeNle = CCCC[C@H](NC)C(=O)O; Tle = CC(C)(C)[C@H](N)C(=O)O; 12Ado = NCCCCCCCCCCCC(=O)O; dOrn = NCCC[C@@H](N)C(=O)O; dDab = NCC[C@@H](N)C(=O)O; Carboxymethyl = O=C(O)C*; Orn = NCCC[C@H](N)C(=O)O; Aun = NCCCCCCCCCCC(=O)O; Dab = NCC[C@H](N)C(=O)O; Piv = CC(C)(C)C(=O)*

Biological target: T1, PD-1/PD-L1 interaction (PE-labeled human PD-L1-Ig binding to Jurkat cell line over-expressing human PD-1) (Homo sapiens, UniProt Q15116)
T1 construct: expressed in transfected cells; host or cells: Jurkat
Test: Jurkat-PD-1 Cell Binding High-Content Screening Assay (CBA)
Type: cell-based
Settings: Jurkat cell line over-expressing human PD-1; PE-labeled PD-L1-Ig 20 nM final; read-out: Jurkat hPD1-PDL1 IC50
Procedure, shortened: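 Read-out is high-content imaging of cell-bound phycoerythrin-tagged PD-L1-Ig on fixed, Hoechst-counterstained Jurkat cells that over-express human PD-1. Compound exposure lasts 2 h at 37° C before the labeled ligand (20 nM final) is added for a further hour.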

T1 sequence (Q15116 25-288): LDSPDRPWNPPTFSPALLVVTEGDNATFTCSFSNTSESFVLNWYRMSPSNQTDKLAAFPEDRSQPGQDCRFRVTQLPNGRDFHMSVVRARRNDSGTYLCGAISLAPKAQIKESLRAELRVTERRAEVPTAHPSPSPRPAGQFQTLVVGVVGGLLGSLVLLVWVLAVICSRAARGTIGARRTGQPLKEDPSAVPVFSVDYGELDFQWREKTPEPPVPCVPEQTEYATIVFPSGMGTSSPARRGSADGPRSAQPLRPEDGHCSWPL

IC50 | SMILES
11.1 nM | CC(=O)NCCCC[C@@H]1NC(=O)[C@H](Cc2ccc(-c3ccccc3)cc2)NC(=O)[C@H](C(C)C)NC(=O)[C@H](Cc2cccc(C)c2)NC(=O)[C@H](CC(=O)O)NC(=O)[C@H](Cc2ccc(OCC(=O)O)cc2)NC(=O)[C@H](CCCNC(=N)N)NC(=O)CSC[C@@H](C(=O)N[C@H](CC(N)=O)C(=O)NCCCCCCCCCCC(=O)O)NC(=O)[C@H](C(C)O)NC(=O)[C@H](C(C)C)NC(=O)[C@H](CC2CCCCC2)NC(=O)[C@H](CCN)NC(=O)[C@@H](CC(C)C)NC(=O)[C@H](CCCN)NC1=O (stereo partly drawn) [Compound 3548] ({CH2CO}-RY(Carboxymethyl)D[Phe(3-Me)]V[Bip]K(Ac)[Orn][dL][Dab][Cha]V[Thr(3ξ)]C[dN][Aun]-OH; thioether N-14)
37 nM | Cc1cccc(C[C@@H]2NC(=O)[C@H](CC(=O)O)NC(=O)[C@H](Cc3ccc(OCC(=O)O)cc3)NC(=O)[C@H](CCCNC(=N)N)NC(=O)CSC[C@@H](C(=O)N[C@@H](CCCCN)C(=O)N[C@@H](CO)C(=O)NCCCCCCCCCCCC(=O)O)NC(=O)[C@H](C(C)O)NC(=O)[C@H](C(C)C)NC(=O)[C@H](CC3CCCCC3)NC(=O)[C@H](CCN)NC(=O)[C@@H](CC(C)C)NC(=O)[C@H](CCCN)NC(=O)[C@H](CCCNC(N)=O)NC(=O)[C@H](Cc3ccc(-c4ccccc4)cc3)NC(=O)[C@H](C(C)C)NC2=O)c1 (stereo partly drawn) [Compound 3549] ({CH2CO}-RY(Carboxymethyl)D[Phe(3-Me)]V[Bip][Cit][Orn][dL][Dab][Cha]V[Thr(3ξ)]CKS[12Ado]-OH; thioether N-14)
76.2 nM | Cc1cccc(C[C@@H]2NC(=O)[C@H](CC(=O)O)NC(=O)[C@H](Cc3ccc(OCC(=O)O)cc3)NC(=O)[C@H](CCCNC(=N)N)NC(=O)CSC[C@@H](C(=O)N[C@@H](CCCCN)C(=O)N[C@@H](CO)C(=O)NCCCCCCCCCCCC(=O)O)NC(=O)[C@H](C(C)O)NC(=O)[C@H](C(C)C)NC(=O)[C@H](CC3CCCCC3)NC(=O)[C@H](CCN)NC(=O)[C@@H](CC(C)C)NC(=O)[C@H](CCCN)NC(=O)[C@H](CCCNC(=N)N)NC(=O)[C@H](Cc3ccc(-c4ccccc4)cc3)NC(=O)[C@H](Cc3ccc(O)cc3)NC2=O)c1 (stereo partly drawn) [Compound 3550] ({CH2CO}-RY(Carboxymethyl)D[Phe(3-Me)]Y[Bip]R[Orn][dL][Dab][Cha]V[Thr(3ξ)]CKS[12Ado]-OH; thioether N-14)
33.4 nM | Cc1cccc(C[C@@H]2NC(=O)[C@H](CC(=O)O)NC(=O)[C@H](Cc3ccc(OCC(=O)O)cc3)NC(=O)[C@H](CCCCNC(=N)N)NC(=O)CSC[C@@H](C(=O)N[C@@H](CCN)C(=O)NCCCCCCCCCCCC(=O)O)NC(=O)[C@H](C(C)O)NC(=O)[C@H](C(C)C)NC(=O)[C@H](CC3CCCCC3)NC(=O)[C@H](CCN)NC(=O)[C@@H](CC(C)C)NC(=O)[C@H](CCCN)NC(=O)[C@H](CCCNC(N)=O)NC(=O)[C@H](Cc3ccc(-c4ccccc4)cc3)NC(=O)[C@H](C(C)C)NC2=O)c1 (stereo partly drawn) [Compound 3551] ({CH2CO}-[hArg]Y(Carboxymethyl)D[Phe(3-Me)]V[Bip][Cit][Orn][dL][Dab][Cha]V[Thr(3ξ)]C[Dab][12Ado]-OH; thioether N-14)
20.5 nM | Cc1cccc(C[C@@H]2NC(=O)[C@H](CC(=O)O)NC(=O)[C@H](Cc3ccc(OCC(=O)O)cc3)NC(=O)[C@H](CCCCNC(=N)N)NC(=O)CSC[C@@H](C(=O)N[C@H](CCC(=O)O)C(=O)NCCCCCCCCCCCC(=O)O)NC(=O)[C@H](C(C)O)NC(=O)[C@H](C(C)C)NC(=O)[C@H](CC3CCCCC3)NC(=O)[C@H](CCN)NC(=O)[C@@H](CC(C)C)NC(=O)[C@H](CCCN)NC(=O)[C@H](CCCNC(N)=O)NC(=O)[C@H](Cc3ccc(-c4ccccc4)cc3)NC(=O)[C@H](C(C)C)NC2=O)c1 (stereo partly drawn) [Compound 3552] ({CH2CO}-[hArg]Y(Carboxymethyl)D[Phe(3-Me)]V[Bip][Cit][Orn][dL][Dab][Cha]V[Thr(3ξ)]C[dE][12Ado]-OH; thioether N-14)
37.3 nM | Cc1cccc(C[C@@H]2NC(=O)[C@H](CC(=O)O)NC(=O)[C@H](Cc3ccc(OCC(=O)O)cc3)NC(=O)[C@H](C(C)O)NC(=O)CSC[C@@H](C(=O)N[C@H](CCC(=O)O)C(=O)NCCCCCCCCCCCC(=O)O)NC(=O)[C@H](C(C)O)NC(=O)[C@H](C(C)C)NC(=O)[C@H](CC3CCCCC3)NC(=O)[C@H](CCN)NC(=O)[C@@H](CC(C)C)NC(=O)[C@H](CCCN)NC(=O)[C@H](CCCNC(N)=O)NC(=O)[C@H](Cc3ccc(-c4ccccc4)cc3)NC(=O)[C@H](C(C)C)NC2=O)c1 (stereo partly drawn) [Compound 3553] ({CH2CO}-[Thr(3ξ)]Y(Carboxymethyl)D[Phe(3-Me)]V[Bip][Cit][Orn][dL][Dab][Cha]V[Thr(3ξ)]C[dE][12Ado]-OH; thioether N-14)
18.4 nM | Cc1cccc(C[C@@H]2NC(=O)[C@H](CC(=O)O)NC(=O)[C@H](Cc3ccc(OCC(=O)O)cc3)NC(=O)[C@H](C(C)O)NC(=O)CSC[C@@H](C(=O)N[C@@H](CCN)C(=O)NCCCCCCCCCCC(=O)O)NC(=O)[C@H](C(C)O)NC(=O)[C@H](C(C)C)NC(=O)[C@H](CC3CCCCC3)NC(=O)[C@H](CCN)NC(=O)[C@@H](CC(C)C)NC(=O)[C@H](CCCNC(=N)N)NC(=O)[C@H](CCCNC(N)=O)NC(=O)[C@H](Cc3ccc(-c4ccccc4)cc3)NC(=O)[C@H](C(C)C)NC2=O)c1 (stereo partly drawn) [Compound 3554] ({CH2CO}-[Thr(3ξ)]Y(Carboxymethyl)D[Phe(3-Me)]V[Bip][Cit]R[dL][Dab][Cha]V[Thr(3ξ)]C[Dab][Aun]-OH; thioether N-14)
42.8 nM | CCCC[C@H]1C(=O)N[C@@H](Cc2ccc(OCC(=O)O)cc2)C(=O)N[C@@H](CC(=O)O)C(=O)N[C@@H](Cc2cccc(C)c2)C(=O)N[C@@H](C(C)C)C(=O)N[C@@H](Cc2ccc(-c3ccccc3)cc2)C(=O)N[C@@H](CCCNC(N)=O)C(=O)N[C@@H](CCCN)C(=O)N[C@H](CC(C)C)C(=O)N[C@@H](CCN)C(=O)N[C@@H](CC2CCCCC2)C(=O)N[C@@H](C(C)C)C(=O)N[C@@H](C(C)O)C(=O)N[C@H](C(=O)N[C@@H](CCN)C(=O)NCCCCCCCCCCC(=O)O)CSCC(=O)N1C (stereo partly drawn) [Compound 3555] ({CH2CO}-[NMeNle]Y(Carboxymethyl)D[Phe(3-Me)]V[Bip][Cit][Orn][dL][Dab][Cha]V[Thr(3ξ)]C[Dab][Aun]-OH; thioether N-14)
13.2 nM | Cc1cccc(C[C@@H]2NC(=O)[C@H](CC(=O)O)NC(=O)[C@H](Cc3ccc(OCC(=O)O)cc3)NC(=O)[C@H](CCCNC(=N)N)NC(=O)CSC[C@@H](C(=O)N[C@@H](CCN)C(=O)NCCCCCCCCCCC(=O)O)NC(=O)[C@H](C(C)O)NC(=O)[C@H](C(C)C)NC(=O)[C@H](CC3CCCCC3)NC(=O)[C@H](CCN)NC(=O)[C@@H](CC(C)C)NC(=O)[C@H](CCCN)NC(=O)[C@H](CCCCNC(=O)C(C)(C)C)NC(=O)[C@H](Cc3ccc(-c4ccccc4)cc3)NC(=O)[C@H](Cc3ccc(O)cc3)NC2=O)c1 (stereo partly drawn) [Compound 3556] ({CH2CO}-RY(Carboxymethyl)D[Phe(3-Me)]Y[Bip]K(Piv)[Orn][dL][Dab][Cha]V[Thr(3ξ)]C[Dab][Aun]-OH; thioether N-14)
29.8 nM | CC(=O)NCCCC[C@@H]1NC(=O)[C@H](Cc2ccc(-c3ccccc3)cc2)NC(=O)[C@H](C(C)C)NC(=O)[C@H](Cc2cccc(C)c2)NC(=O)[C@H](CC(=O)O)NC(=O)[C@H](Cc2ccc(OCC(=O)O)cc2)NC(=O)[C@H](CCCNC(=N)N)NC(=O)CSC[C@@H](C(=O)N[C@H](CCN)C(=O)NCCCCCCCCCCC(=O)O)NC(=O)[C@H](C(C)O)NC(=O)[C@H](C(C)C)NC(=O)[C@H](CC2CCCCC2)NC(=O)[C@H](CCN)NC(=O)[C@@H](CC(C)C)NC(=O)[C@H](CCCN)NC1=O (stereo partly drawn) [Compound 3558] ({CH2CO}-RY(Carboxymethyl)D[Phe(3-Me)]V[Bip]K(Ac)[Orn][dL][Dab][Cha]V[Thr(3ξ)]C[dDab][Aun]-OH; thioether N-14)
14.1 nM | CC(=O)NCCCC[C@@H]1NC(=O)[C@H](Cc2ccc(-c3ccccc3)cc2)NC(=O)[C@H](C(C)C)NC(=O)[C@H](Cc2cccc(C)c2)NC(=O)[C@H](CC(=O)O)NC(=O)[C@H](Cc2ccc(OCC(=O)O)cc2)NC(=O)[C@H](CCCNC(=N)N)NC(=O)CSC[C@@H](C(=O)N[C@H](CCCN)C(=O)NCCCCCCCCCCC(=O)O)NC(=O)[C@H](C(C)O)NC(=O)[C@H](C(C)C)NC(=O)[C@H](CC2CCCCC2)NC(=O)[C@H](CCN)NC(=O)[C@@H](CC(C)C)NC(=O)[C@H](CCCN)NC1=O (stereo partly drawn) [Compound 3559] ({CH2CO}-RY(Carboxymethyl)D[Phe(3-Me)]V[Bip]K(Ac)[Orn][dL][Dab][Cha]V[Thr(3ξ)]C[dOrn][Aun]-OH; thioether N-14)
17.9 nM | CC(=O)NCCCC[C@@H]1NC(=O)[C@H](Cc2ccc(-c3ccccc3)cc2)NC(=O)[C@H](C(C)C)NC(=O)[C@H](Cc2cccc(C)c2)NC(=O)[C@H](CC(=O)O)NC(=O)[C@H](Cc2ccc(OCC(=O)O)cc2)NC(=O)[C@H](CCCNC(=N)N)NC(=O)CSC[C@@H](C(=O)N[C@@H](CCN)C(=O)NCCCCCCCCCCC(=O)O)NC(=O)[C@H](C(C)O)NC(=O)[C@H](C(C)(C)C)NC(=O)[C@H](CC2CCCCC2)NC(=O)[C@H](CCN)NC(=O)[C@@H](CC(C)C)NC(=O)[C@H](CCCN)NC1=O (stereo partly drawn) [Compound 3560] ({CH2CO}-RY(Carboxymethyl)D[Phe(3-Me)]V[Bip]K(Ac)[Orn][dL][Dab][Cha][Tle][Thr(3ξ)]C[Dab][Aun]-OH; thioether N-14)
40.5 nM | Cc1cccc(C[C@@H]2NC(=O)[C@H](CC(=O)O)NC(=O)[C@H](Cc3ccc(OCC(=O)O)cc3)NC(=O)[C@H](CCCNC(=N)N)NC(=O)CSC[C@@H](C(=O)N[C@H](CO)C(=O)NCCCCCCCCCCCC(=O)O)NC(=O)[C@H](C(C)O)NC(=O)[C@H](C(C)C)NC(=O)[C@H](CC3CCCCC3)NC(=O)[C@H](CCN)NC(=O)[C@@H](CC(C)C)NC(=O)[C@H](CCCN)NC(=O)[C@H](CCCNC(N)=O)NC(=O)[C@H](Cc3ccc(-c4ccccc4)cc3)NC(=O)[C@H](C(C)C)NC2=O)c1 (stereo partly drawn) [Compound 3561] ({CH2CO}-RY(Carboxymethyl)D[Phe(3-Me)]V[Bip][Cit][Orn][dL][Dab][Cha]V[Thr(3ξ)]C[dS][12Ado]-OH; thioether N-14)
